Results from patent US12168003B2, “Selective inhibition of T follicular helper cells for treatment of autoimmune disorders” (priority 2019, dated 2024).

Columns and labels:
TFH cells = assay: OVA/Alum immunization with 4EGI-1 throughout the response; format: in vivo, mouse
Procedure: Single cell suspensions were stained with a viability marker diluted 1:1000 in PBS for 10 minutes, washed in PBS, and stained with antibodies to specific cell surface markers. Viability dye, antibody clones, and dilutions used to identify these populations are detailed in Table 2. Identification of cellular subsets in mice is detailed in FIGS. 1A-1N, 3A-3C, and 6A-6C). In brief, the following gating strategy was used to identify mouse TFH cells (CD4^+ PD1^+ CXCR5^+), TFR cells (CD4^+ PD1^+ CXCR5^+ Foxp3^+), IL-21^+ CD4^+ T cells (CD4^+ VFP^3+), IL-4^+ CD4^+ T cells (CD4^+ GFP^+) OT2 T cells (CD4^+ CD45.2^+ Vβ5^+), OT2 TFH cells (CD4^+ CD45.2^+ Vβ5^+ PD1^+ CXCR5^+), 2D2 T cells (CD4^+ CD45.2^+ Vα3.2^+), TFH-like 2D2 T cells (CD4^+ CD45.2^+ […]), plasma cells (B220^− CD138^+), plasmablasts (B220^mid CD138^+), GC B cells (B220^+ GL7^+ Fas^+), Light zone GC B cells (B220^+ GL7^+ Fas^+ CD86^+), dark zone GC B cells (B220^+ GL7^+ Fas^+ CXCR4^+), IgG1 switched GC B cells (B220^+ GL7^+ Fas^+ IgG1^+), OVA-specific GC B cells (B220^+ GL7^+ Fas^+ OVA-647^+), skin neutrophils (Ly6G^+ CD11b^+), lung eosinophils (SiglecF^+CD11c^−), brain and SC CD4^+ T cells (CD45^+ CD4^+). CD4^+ T cell expression of surface ICOS, PD-1, CXCR5, CD28, SLAM, OX-40 and intranuclear BCL6 was also determined. All flow cytometry procedures were performed on a ZE5 Cell Analyzed (Bio-Rad) and analyzed using FlowJo software (TreeStar).
OVA protein (Sigma A5503) was diluted in PBS and then in 20 mg/mL Imject Alum (ThermoFisher 77161) and mixed at room temperature for 30 minutes prior to i.p. injection of 100 μg OVA in 200 μL. When stated, mice were treated i.p. daily from day 0 to 6 or day 0 to 13 (just for TFR analysis) following OVA/Alum immunization with 25 mg/kg 4EGI-1 (MedChemExpress) or from day 7 to 13 following OVA/Alum immunization with 50 mg/kg or 75 mg/kg 4EGI-1. Vehicle control mice were administered 6 μL DMSO in 194 μL PBS i.p.
Spleens from OVA/Alum immunized mice treated with vehicle or 4EGI-1 were harvested, embedded in OCT, and frozen immediately on dry ice. Five-micron thick cryosections were cut and fixed in acetone for 10 min. Slides were blocked with 1% BSA and stained with anti-CD4 conjugated to Alexa Fluor 647 and anti-B220 Alexa Fluor 555. Antibody clones are detailed in Table 2. Following 3 washes with PBS, slides were mounted with DAPI fluoromount (VECTASHIELD) and sealed with clear nail polish. Staining was visualized and tiled using a Zeiss 700 laser scanning inverted confocal microscope.
B cell (Alexa fluor 555) and CD4^+ T cell (Alexa fluor 647) channels were split using FIJI, and B cell zones were manually outlined. This outline was overlaid upon the CD4^+ T cell stain and intensity of CD4^+ T cell staining within these zones was measured using FIJI and normalized to a fixed area of 500 microns
PVDF-coated 96-well plates (Millipore) were activated with methanol for 2 minutes, washed with PBS, and coated with 4 μg/mL OVA overnight at 4° C. Plates were blocked with 1% BSA for 2 hours at 37° C. prior to incubation with 1×10^7 splenocytes in RPMI containing 2% Ultra-low IgG FCS, 55 μM 2ME, and 100 U/mL penicillin and 100 μg/mL streptomycin in the top well. Cells were diluted by 1/2 each row going down the plate and incubated immobile overnight at 37° C. Plates were washed with water+0.05% Tween 20 for 5 min prior to 3 washes in PBS+0.05% Tween-20 for 10 minutes. Plates were incubated with 1:1000 HRP-coupled goat anti-mouse IgG1 antibody (Southern Biotech) in PBS+0.05% Tween 20 for 2 h prior to 3 washes in PBS+0.05% Tween 20 and incubation in tetramethylbenzidine (TMB) ELISA substrate buffer (ThermoFisher). Plates were washed once in distilled deionized water and spots were manually enumerated and antibody-secreting cells (ASC) per million splenocytes was determined.
For quantification of OVA-specific IgG1, high-binding 96-well plates (Costar) were coated with 10 μg/mL OVA protein. […]

pre-existing TFH cells = conditions: 75 mg/kg, mice (Sekiyama et al.); cited from earlier work
[1] = cytokine reporter mice, OVA-Alum immunization

O=C(O)C(Cc1ccccc1[N+](=O)[O-])=NNc1nc(-c2ccc(Cl)c(Cl)c2)cs1 (mixture of isomers) [4EGI-1]
reduction of TFH cells in spleen (TFH cells; 25 mg/kg daily, OVA/Alum, day 7): 3.5 fold
overall CD4+ T cell numbers (TFH cells; 25 mg/kg daily, OVA/Alum, spleen, day 7): did not alter
CD4+ T cell activation (CD44high) (TFH cells; 25 mg/kg daily, OVA/alum): did not affect
CD4+ T cell division (TFH cells; 25 mg/kg daily, OVA/alum): did not affect
CD4+ T cell expression of CD28 (TFH cells; 25 mg/kg daily, OVA/alum): decreased by half
CD4+ T cell expression of OX40 (TFH cells; 25 mg/kg daily, OVA/alum): not affected
CD4+ T cell expression of SLAM (TFH cells; 25 mg/kg daily, OVA/alum): decreased by half
levels of expression of ICOS on CD4+ T cells (TFH cells; 25 mg/kg daily, OVA/alum): did not affect
reduction of expression of PD-1 on splenic CD4+ T cells (TFH cells; 25 mg/kg daily, OVA/alum): more than half
reduction of expression of intranuclear BCL6 in splenic CD4+ T cells (TFH cells; 25 mg/kg daily, OVA/alum): more than half
reduction of expression of surface CXCR5 on splenic CD4+ T cells (TFH cells; 25 mg/kg daily, OVA/alum): more than half
infiltration of CD4+ T cells in B cell zones (TFH cells; 25 mg/kg daily, OVA/alum, splenic sections): almost abolished
reduction of TFR cells (TFH cells; 4EGI-1 for 14 days, measured at day 14, OVA/Alum): 3 fold
serum OVA-specific IgG1 antibody (TFH cells; OVA/Alum, ELISA): reduced by half
OVA-specific IgG1 antibody secreting cells (ASCs) (TFH cells; OVA/Alum, ELISPOT, splenocytes): almost abolished
decrease of GC B cells in the CD86+ light zone (LZ) (TFH cells; OVA/Alum, spleen, day 7): 3 fold
decrease of GC B cells in the CXCR4+ dark zone (DZ) (TFH cells; OVA/Alum, spleen, day 7): 3 fold
decrease of GC B cells that are class switched IgG1+ (TFH cells; OVA/Alum, spleen, day 7): 3 fold
decrease of OVA-specific GC B cells (TFH cells; OVA/Alum, spleen, day 7): 3 fold
decrease of number of total GC B cells (TFH cells; OVA/Alum, spleen, day 7): 3 fold
reduction of number of total plasma cells (TFH cells; OVA/Alum, spleen, day 7): 2 fold
reduction of number of total plasmablasts (TFH cells; OVA/Alum, spleen, day 7): 2 fold
decrease of total number of CD4+ T cells producing IL-4 (GFP+) in the spleen (TFH cells; [1]): 2.5 fold
decrease of total number of CD4+ T cells producing IL-21 (VFP+) in the spleen (TFH cells; [1]): 2.5 fold
safety of the dose (pre-existing TFH cells): within its safety range
